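Test compounds were applied to cells in 96-well plates for 48 hours at 5 doses. Abbreviation: GI50, concentration required for 50% inhibition of growth. TGI marks complete inhibition of growth.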
Columns and labels:
Assay in all cases: NCI anticancer screen, dose series, 48 h
A498 renal = system: A498 renal
OVCAR-4 ovarian = system: OVCAR-4 ovarian
HL-60(TB) leukemia = system: HL-60(TB) leukemia
U251 CNS = system: U251 CNS
CCRF-CEM leukemia = system: CCRF-CEM leukemia
RPMI-8226 leukemia = system: RPMI-8226 leukemia
SF-268 CNS = system: SF-268 CNS
786-0 renal = system: 786-0 renal
DU-145 prostate = system: DU-145 prostate
HOP-62 NSCLC = system: HOP-62 NSCLC
OVCAR-3 ovarian = system: OVCAR-3 ovarian
SN12C renal = system: SN12C renal
M14 melanoma = system: M14 melanoma
SNB-19 CNS = system: SNB-19 CNS
HCT-116 colon = system: HCT-116 colon
CAKI-1 renal = system: CAKI-1 renal
SF-539 CNS = system: SF-539 CNS
EKVX NSCLC = system: EKVX NSCLC
IGROV1 ovarian = system: IGROV1 ovarian
UACC-257 melanoma = system: UACC-257 melanoma
OVCAR-8 ovarian = system: OVCAR-8 ovarian
SK-MEL-5 melanoma = system: SK-MEL-5 melanoma
UO-31 renal = system: UO-31 renal
OVCAR-5 ovarian = system: OVCAR-5 ovarian
SK-OV-3 ovarian = system: SK-OV-3 ovarian
NCI/ADR-RES ovarian = system: NCI/ADR-RES ovarian
HT29 colon = system: HT29 colon
NCI-H522 lung = system: NCI-H522 lung
KM12 colon = system: KM12 colon
HOP-92 NSCLC = system: HOP-92 NSCLC
NCI-H23 lung = system: NCI-H23 lung
MOLT-4 leukemia = system: MOLT-4 leukemia
SK-MEL-28 melanoma = system: SK-MEL-28 melanoma
A549 NSCLC = system: A549 NSCLC
HS 578T breast = system: HS 578T breast
UACC-62 melanoma = system: UACC-62 melanoma
SK-MEL-2 melanoma = system: SK-MEL-2 melanoma
SW-620 colon = system: SW-620 colon
T-47D breast = system: T-47D breast
HCC-2998 colon = system: HCC-2998 colon
PC-3 prostate = system: PC-3 prostate
MDA-MB-435 = system: MDA-MB-435
NCI-H226 lung = system: NCI-H226 lung
LOX IMVI melanoma = system: LOX IMVI melanoma
SR leukemia = system: SR leukemia
RXF 393 renal = system: RXF 393 renal
MALME-3M melanoma = system: MALME-3M melanoma
MDA-MB-231 breast = system: MDA-MB-231 breast
TK-10 renal = system: TK-10 renal
HCT-15 colon = system: HCT-15 colon
SF-295 CNS = system: SF-295 CNS
ACHN renal = system: ACHN renal
K-562 leukemia = system: K-562 leukemia
BT-549 breast = system: BT-549 breast
SNB-75 CNS = system: SNB-75 CNS
MCF7 breast = system: MCF7 breast
COLO 205 colon = system: COLO 205 colon
NCI-H460 lung = system: NCI-H460 lung

For `COc1ccc(C(C)=C(c2ccc(OCCN(C)C)cc2)c2ccc(OCCN(C)C)cc2)cc1`, which GI50 (A498 renal) is on record?
Its GI50 is 1130 nM.

What about the TGI (A498 renal) of the same molecule?
Its TGI is 4150 nM.

And the GI50 (OVCAR-4 ovarian)?
The GI50 was 865 nM.

What about the TGI (OVCAR-4 ovarian) of the same molecule?
Its TGI is 3250 nM.

And the GI50 (HL-60(TB) leukemia)?
The GI50 was 477 nM.

What about the TGI (HL-60(TB) leukemia) of the same molecule?
The TGI was 999 nM.

And the GI50 (U251 CNS)?
The GI50 was 679 nM.

What about the TGI (U251 CNS) of the same molecule?
The TGI was 2610 nM.

What about the GI50 (CCRF-CEM leukemia) of the same molecule?
The GI50 was 624 nM.

What about the TGI (CCRF-CEM leukemia) of the same molecule?
Its TGI is 2360 nM.

What about the GI50 (RPMI-8226 leukemia) of the same molecule?
Its GI50 is 584 nM.

And the TGI (RPMI-8226 leukemia)?
Its TGI is 1510 nM.

What about the GI50 (SF-268 CNS) of the same molecule?
Its GI50 is 1110 nM.

What about the TGI (SF-268 CNS) of the same molecule?
Its TGI is 4350 nM.

And the GI50 (786-0 renal)?
Its GI50 is 445 nM.

And the TGI (786-0 renal)?
The TGI was 1100 nM.

And the GI50 (DU-145 prostate)?
The GI50 was 1810 nM.

What about the TGI (DU-145 prostate) of the same molecule?
The TGI was 5180 nM.

What about the GI50 (HOP-62 NSCLC) of the same molecule?
Its GI50 is 1360 nM.

And the TGI (HOP-62 NSCLC)?
The TGI was 3420 nM.

And the GI50 (OVCAR-3 ovarian)?
The GI50 was 585 nM.

What about the TGI (OVCAR-3 ovarian) of the same molecule?
The TGI was 1790 nM.

And the GI50 (SN12C renal)?
The GI50 was 2000 nM.

What about the TGI (SN12C renal) of the same molecule?
The TGI was 6090 nM.

What about the GI50 (M14 melanoma) of the same molecule?
The GI50 was 427 nM.

What about the TGI (M14 melanoma) of the same molecule?
Its TGI is 824 nM.

And the GI50 (SNB-19 CNS)?
The GI50 was 1330 nM.

And the TGI (SNB-19 CNS)?
The TGI was 4860 nM.

And the GI50 (HCT-116 colon)?
Its GI50 is 415 nM.

What about the TGI (HCT-116 colon) of the same molecule?
The TGI was 2450 nM.

And the GI50 (CAKI-1 renal)?
Its GI50 is 647 nM.

And the TGI (CAKI-1 renal)?
Its TGI is 2310 nM.

And the GI50 (SF-539 CNS)?
The GI50 was 468 nM.

What about the TGI (SF-539 CNS) of the same molecule?
Its TGI is 948 nM.

What about the GI50 (EKVX NSCLC) of the same molecule?
The GI50 was 1650 nM.

What about the TGI (EKVX NSCLC) of the same molecule?
Its TGI is 5250 nM.

And the GI50 (IGROV1 ovarian)?
The GI50 was 1100 nM.

What about the TGI (IGROV1 ovarian) of the same molecule?
Its TGI is 3920 nM.

What about the GI50 (UACC-257 melanoma) of the same molecule?
Its GI50 is 469 nM.

And the TGI (UACC-257 melanoma)?
The TGI was 957 nM.

And the GI50 (OVCAR-8 ovarian)?
Its GI50 is 1170 nM.

And the TGI (OVCAR-8 ovarian)?
The TGI was 4540 nM.

What about the GI50 (SK-MEL-5 melanoma) of the same molecule?
The GI50 was 432 nM.

And the TGI (SK-MEL-5 melanoma)?
The TGI was 794 nM.

And the GI50 (UO-31 renal)?
The GI50 was 804 nM.

And the TGI (UO-31 renal)?
The TGI was 2110 nM.

And the GI50 (OVCAR-5 ovarian)?
The GI50 was 1720 nM.

What about the TGI (OVCAR-5 ovarian) of the same molecule?
Its TGI is 5010 nM.

And the GI50 (SK-OV-3 ovarian)?
The GI50 was 3910 nM.

And the TGI (SK-OV-3 ovarian)?
The TGI was 7510 nM.

And the GI50 (NCI/ADR-RES ovarian)?
Its GI50 is 1340 nM.

And the TGI (NCI/ADR-RES ovarian)?
Its TGI is 4680 nM.

And the GI50 (HT29 colon)?
The GI50 was 490 nM.

What about the TGI (HT29 colon) of the same molecule?
The TGI was 1630 nM.

And the GI50 (NCI-H522 lung)?
Its GI50 is 866 nM.

What about the TGI (NCI-H522 lung) of the same molecule?
The TGI was 3620 nM.

What about the GI50 (KM12 colon) of the same molecule?
Its GI50 is 1070 nM.

What about the TGI (KM12 colon) of the same molecule?
The TGI was 4210 nM.

What about the GI50 (HOP-92 NSCLC) of the same molecule?
The GI50 was 633 nM.

What about the TGI (HOP-92 NSCLC) of the same molecule?
The TGI was 3170 nM.

What about the GI50 (NCI-H23 lung) of the same molecule?
The GI50 was 2950 nM.

And the TGI (NCI-H23 lung)?
The TGI was 6530 nM.

What about the GI50 (MOLT-4 leukemia) of the same molecule?
The GI50 was 544 nM.

What about the TGI (MOLT-4 leukemia) of the same molecule?
The TGI was 1610 nM.

And the GI50 (SK-MEL-28 melanoma)?
The GI50 was 464 nM.

What about the TGI (SK-MEL-28 melanoma) of the same molecule?
Its TGI is 904 nM.

What about the GI50 (A549 NSCLC) of the same molecule?
The GI50 was 1030 nM.

What about the TGI (A549 NSCLC) of the same molecule?
The TGI was 4480 nM.

And the GI50 (HS 578T breast)?
Its GI50 is 884 nM.

What about the TGI (HS 578T breast) of the same molecule?
The TGI was 4250 nM.

What about the GI50 (UACC-62 melanoma) of the same molecule?
Its GI50 is 533 nM.

What about the TGI (UACC-62 melanoma) of the same molecule?
The TGI was 1250 nM.

What about the GI50 (SK-MEL-2 melanoma) of the same molecule?
Its GI50 is 588 nM.

What about the TGI (SK-MEL-2 melanoma) of the same molecule?
The TGI was 1390 nM.

And the GI50 (SW-620 colon)?
Its GI50 is 639 nM.

And the TGI (SW-620 colon)?
The TGI was 2220 nM.

What about the GI50 (T-47D breast) of the same molecule?
Its GI50 is 374 nM.

And the TGI (T-47D breast)?
The TGI was 966 nM.

And the GI50 (HCC-2998 colon)?
The GI50 was 858 nM.

And the TGI (HCC-2998 colon)?
The TGI was 3490 nM.

And the GI50 (PC-3 prostate)?
The GI50 was 1360 nM.

What about the TGI (PC-3 prostate) of the same molecule?
Its TGI is 4810 nM.

And the GI50 (MDA-MB-435)?
Its GI50 is 507 nM.

And the TGI (MDA-MB-435)?
Its TGI is 1130 nM.

What about the GI50 (NCI-H226 lung) of the same molecule?
Its GI50 is 3030 nM.

And the TGI (NCI-H226 lung)?
The TGI was 6890 nM.

What about the GI50 (LOX IMVI melanoma) of the same molecule?
The GI50 was 343 nM.

And the TGI (LOX IMVI melanoma)?
Its TGI is 741 nM.

What about the GI50 (SR leukemia) of the same molecule?
Its GI50 is 321 nM.

What about the TGI (SR leukemia) of the same molecule?
Its TGI is 941 nM.

And the GI50 (RXF 393 renal)?
The GI50 was 381 nM.

And the TGI (RXF 393 renal)?
Its TGI is 934 nM.

What about the GI50 (MALME-3M melanoma) of the same molecule?
Its GI50 is 439 nM.

What about the TGI (MALME-3M melanoma) of the same molecule?
Its TGI is 893 nM.

And the GI50 (MDA-MB-231 breast)?
Its GI50 is 684 nM.

What about the TGI (MDA-MB-231 breast) of the same molecule?
The TGI was 2290 nM.

And the GI50 (TK-10 renal)?
Its GI50 is 3310 nM.

What about the TGI (TK-10 renal) of the same molecule?
Its TGI is 6860 nM.

What about the GI50 (HCT-15 colon) of the same molecule?
Its GI50 is 582 nM.

What about the TGI (HCT-15 colon) of the same molecule?
Its TGI is 2050 nM.

And the GI50 (SF-295 CNS)?
Its GI50 is 510 nM.

What about the TGI (SF-295 CNS) of the same molecule?
The TGI was 1180 nM.

And the GI50 (ACHN renal)?
The GI50 was 763 nM.

What about the TGI (ACHN renal) of the same molecule?
The TGI was 2510 nM.

What about the GI50 (K-562 leukemia) of the same molecule?
Its GI50 is 395 nM.

And the TGI (K-562 leukemia)?
Its TGI is 918 nM.

What about the GI50 (BT-549 breast) of the same molecule?
The GI50 was 1850 nM.

And the TGI (BT-549 breast)?
The TGI was 5240 nM.

And the GI50 (SNB-75 CNS)?
The GI50 was 2280 nM.

What about the TGI (SNB-75 CNS) of the same molecule?
The TGI was 5950 nM.

What about the GI50 (MCF7 breast) of the same molecule?
Its GI50 is 243 nM.

And the TGI (MCF7 breast)?
Its TGI is 889 nM.

What about the GI50 (COLO 205 colon) of the same molecule?
The GI50 was 432 nM.

And the TGI (COLO 205 colon)?
The TGI was 908 nM.

What about the GI50 (NCI-H460 lung) of the same molecule?
The GI50 was 828 nM.

What about the TGI (NCI-H460 lung) of the same molecule?
The TGI was 2940 nM.
